For 22 molecules, IC50 results are on record in patent US10464947B2 (Incyte Corporation, priority 2013, dated 2019).

The subject of one assay is KMS.12.BM cells. In words: KMS.12.BM Cell Viability Assay (Example B1). It is filed as cell-based, human. The note with it: 3 days, Cell Titer-GLO, read-out: KMS cellular IC50. The method in brief:
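KMS.12.BM human myeloma cells, 5000 cells/well in RPMI with 10% FBS, exposed to a compound concentration range for 3 days. Viable cells measured by ATP-based Cell Titer-GLO luminescence after 10 min at room temperature.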
(Cellular ATP, detected with luciferase, serves as a proxy for viable cell number.)

The test system of the next assay is C-myc in KMS.12.BM cells. Briefly: KMS.12.BM C-Myc ELISA Assay (Example C1). The class given is cell-based. The conditions noted are these: Homo sapiens, 2 h. As for the experimental part: KMS.12.BM C-Myc ELISA Assay
KMS.12.BM cell line (human myeloma) was purchased from JCRB (Osaka, Japan) and maintained in RPMI with 10% FBS culture medium. To measure the C-myc inhibitory activity of the compounds, the KMS.12.BM cells are plated in the RPMI culture medium at 75000 cells/well/per 200 μL into a 96-well flat bottom polystyrene tissue culture plate (Corning through VWR, NJ), in the presence or absence of a concentration range of test compounds. After 2 h, cells are pelleted and lysed with Cell Extraction Buffer (BioSource, Carlsbad, Calif.) in the presence of protease inhibitors (Life Technologies, Grand Island, N.Y. and Sigma, St Louis, Mo.). Clarified lyses are tested in a C-myc commercial ELISA (Life Technologies, Grand Island, N.Y.).
Background: An ELISA detects its analyte on a solid surface through an enzyme-linked reagent.

The target in a further assay is BRD4-BD2 (Homo sapiens (Human), UniProt O60885). In words: BRD4 AlphaScreen Assay (Example A1), BRD4-BD2. It is filed as binding. The conditions noted are these: H4Ac4 peptide, 20 nM BRD4-BD2, read-out: BRD4 BD-2 enzyme IC50. Here is the method:
(§1) BRD4-BD1 and BRD4-BD2 assays were conducted in white 384-well polystyrene plate in a final volume of 20 μL for BD1 and 40 μL for BD2. Inhibitors were first serially diluted in DMSO and added to the plate wells before the addition of other reaction components. […] After plate sealing, the plate was incubated in the dark at room temperature for 75 min. before reading on a PHERAstar FS plate reader (BMG Labtech). IC50 determination was performed by fitting the curve of percent control activity versus the log of the inhibitor concentration using the GraphPad Prism 5.0 software.
(In general: Alpha assays give light when donor and acceptor beads are brought close together.)

Another assay deals with BRD4-BD1 (Homo sapiens (Human), UniProt O60885). Briefly: BRD4 AlphaScreen Assay (Example A1), BRD4-BD1. It is filed as binding. The note with it: H4Ac4 peptide, 3.8 nM BRD4-BD1, read-out: BRD4 BD-1 enzyme IC50. Here is the method:
as §1

Structures can show the parent of a compound that is named as a salt. Where two headings read alike, the source gives them in different places.

Broadly, the IC50 is the point on the concentration scale where inhibition reaches its midpoint. `CC(=O)NCc1cc(-c2c(C)noc2C)c2c3c1[nH]c(=O)n3[C@@H](c1ccccn1)CO2` [Example 138, N-{[(4S)-7-(3,5-Dimethylisoxazol-4-yl)-2-oxo-4-pyridin-2-yl-1,2,4,5-tetrahydroimidazo[1,5,4-de][1,4]benzoxazin-9-yl]methyl}acetamide trifluoroacetate]: the IC50 was under 1000 nM in the assay with KMS.12.BM cells (Homo sapiens, 72 h) and under 1000 nM in the assay on C-myc in KMS.12.BM cells.

Consider `COCC(=O)NCc1cc(-c2c(C)noc2C)c2c3c1[nH]c(=O)n3[C@@H](c1ccccn1)CO2` [Example 140, N-{[(4S)-7-(3,5-Dimethylisoxazol-4-yl)-2-oxo-4-pyridin-2-yl-1,2,4,5-tetrahydroimidazo[1,5,4-de][1,4]benzoxazin-9-yl]methyl}-2-methoxyacetamide], for which the IC50 is under 1000 nM in the assay with KMS.12.BM cells (Homo sapiens, 72 h) and under 1000 nM in the assay with C-myc in KMS.12.BM cells.

As to `Cc1noc(C)c1-c1ccc2[nH]c(=O)n3c2c1OCC3c1ccccc1OCC(=O)NCCO` (stereo not shown) [Example 50, 2-{2-[7-(3,5-Dimethylisoxazol-4-yl)-2-oxo-1,2,4,5-tetrahydroimidazo[1,5,4-de][1,4]benzoxazin-4-yl]phenoxy}-N-(2-hydroxyethyl)acetamide], the half-inhibitory concentration (IC50) in the assay with KMS.12.BM cells (Homo sapiens, 72 h) is under 1000 nM; in the assay with C-myc in KMS.12.BM cells, under 1000 nM.

`Cc1noc(C)c1-c1ccc2nc(NC(C)CO)n3c2c1OCC3c1ccccc1` (single isomer, unassigned) [Example 30, 2-{[7-(3,5-Dimethylisoxazol-4-yl)-4-phenyl-4,5-dihydroimidazo[1,5,4-de][1,4]benzoxazin-2-yl]amino}propan-1-ol]: the IC50 in the assay with KMS.12.BM cells (Homo sapiens, 72 h) is under 1000 nM; with C-myc in KMS.12.BM cells, under 1000 nM.

As to `Cc1noc(C)c1-c1ccc2[nH]c(=O)n3c2c1OCC3c1cccnc1` (stereo not shown) [Example 5, 7-(3,5-Dimethylisoxazol-4-yl)-4-pyridin-3-yl-4,5-dihydroimidazo[1,5,4-de][1,4]benzoxazin-2(1H)-one], the IC50 was under 1000 nM in the assay on KMS.12.BM cells (Homo sapiens, 72 h) and under 1000 nM in the assay with C-myc in KMS.12.BM cells.

For `Cc1noc(C)c1-c1ccc2[nH]c(=O)n3c2c1OC(C)C3c1ccccc1` (stereo not shown) [Example 3, 7-(3,5-Dimethylisoxazol-4-yl)-5-methyl-4-phenyl-4,5-dihydroimidazo[1,5,4-de][1,4]benzoxazin-2(1H)-one], the IC50 was under 1000 nM in the assay with KMS.12.BM cells (Homo sapiens, 72 h) and under 1000 nM in the assay with C-myc in KMS.12.BM cells.

`Cc1noc(C)c1-c1ccc2nc(C(=O)N3CCOCC3)n3c2c1OC[C@@H]3c1ccccn1` [Example 94, (4S)-7-(3,5-Dimethylisoxazol-4-yl)-2-(morpholin-4-ylcarbonyl)-4-pyridin-2-yl-4,5-dihydroimidazo[1,5,4-de][1,4]benzoxazine]: the IC50 is under 1000 nM in the assay on KMS.12.BM cells (Homo sapiens, 72 h) and under 1000 nM with C-myc in KMS.12.BM cells.

Regarding `Cc1noc(C)c1-c1cc(C(C)O)c2[nH]c(=O)n3c2c1OC[C@@H]3c1ccccn1` (single isomer, unassigned) [Example 144A], the IC50 is under 1000 nM in the assay with KMS.12.BM cells (Homo sapiens, 72 h) and under 1000 nM with C-myc in KMS.12.BM cells.

With `Cc1noc(C)c1-c1cc(CNS(C)(=O)=O)c2[nH]c(=O)n3c2c1OC[C@@H]3c1ccccn1` [Example 141, N-{[(4S)-7-(3,5-Dimethylisoxazol-4-yl)-2-oxo-4-pyridin-2-yl-1,2,4,5-tetrahydroimidazo[1,5,4-de][1,4]benzoxazin-9-yl]methyl}methanesulfonamide], the IC50 in the assay on KMS.12.BM cells (Homo sapiens, 72 h) is under 1000 nM; with C-myc in KMS.12.BM cells, under 1000 nM.

Take `Cc1noc(C)c1-c1ccc2nc(C(N)=O)n3c2c1OC[C@@H]3c1ccccn1` [Example 96, (4S)-7-(3,5-Dimethylisoxazol-4-yl)-4-pyridin-2-yl-4,5-dihydroimidazo[1,5,4-de][1,4]benzoxazine-2-carboxamide]: the IC50 in the assay on KMS.12.BM cells (Homo sapiens, 72 h) was under 1000 nM; in the assay on C-myc in KMS.12.BM cells it was under 1000 nM.

`Cc1noc(C)c1-c1cc(CNC(=O)Cc2ccccc2)c2[nH]c(=O)n3c2c1OC[C@@H]3c1ccccn1` [Example 139, N-{[(4S)-7-(3,5-Dimethylisoxazol-4-yl)-2-oxo-4-pyridin-2-yl-1,2,4,5-tetrahydroimidazo[1,5,4-de][1,4]benzoxazin-9-yl]methyl}-2-phenylacetamide]: the IC50 with KMS.12.BM cells (Homo sapiens, 72 h) is under 1000 nM; with C-myc in KMS.12.BM cells, 1000 to 10000 nM.

With `COc1ccccc1C1COc2c(-c3c(C)noc3C)ccc3[nH]c(=O)n1c23` (stereo not shown) [Example 7, 7-(3,5-Dimethylisoxazol-4-yl)-4-(2-methoxyphenyl)-4,5-dihydroimidazo[1,5,4-de][1,4]benzoxazin-2(1H)-one], the IC50 was under 1000 nM with KMS.12.BM cells (Homo sapiens, 72 h) and under 1000 nM in the assay with C-myc in KMS.12.BM cells.

Consider `Cc1noc(C)c1-c1ccc2[nH]c(=O)n3c2c1OCC3c1ccccc1` (single isomer, unassigned) [Example 1A, 7-(3,5-Dimethylisoxazol-4-yl)-4-phenyl-4,5-dihydroimidazo[1,5,4-de][1,4]benzoxazin-2(1H)-one], for which the IC50 at BRD4-BD2 is at most 100 nM; in the assay on KMS.12.BM cells it was under 1000 nM; on BRD4-BD1, at most 100 nM; with C-myc in KMS.12.BM cells, under 1000 nM.

Take `Cc1noc(C)c1-c1ccc2[nH]c(=O)n3c2c1OCC3c1cccnc1CN` (stereo not shown) [Example 130, 4-[2-(Aminomethyl)pyridin-3-yl]-7-(3,5-dimethylisoxazol-4-yl)-4,5-dihydroimidazo[1,5,4-de][1,4]benzoxazin-2(1H)-one bis(trifluoroacetate)]: the IC50 is under 1000 nM in the assay on KMS.12.BM cells (Homo sapiens, 72 h) and under 1000 nM in the assay with C-myc in KMS.12.BM cells.

With `Cc1noc(C)c1-c1ccc2[nH]c(=O)n3c2c1OCC3c1cccnc1C(=O)NC1CC1` (single isomer, unassigned) [Example 134, N-Cyclopropyl-3-[7-(3,5-dimethylisoxazol-4-yl)-2-oxo-1,2,4,5-tetrahydroimidazo[1,5,4-de][1,4]benzoxazin-4-yl]pyridine-2-carboxamide], the half-maximal inhibitory concentration (IC50) with KMS.12.BM cells (Homo sapiens, 72 h) is under 1000 nM; with C-myc in KMS.12.BM cells, under 1000 nM.

On to `Cc1noc(C)c1-c1ccc2nc(NCC(C)O)n3c2c1OCC3c1ccccc1` (stereo not shown) [Example 32, 1-{[7-(3,5-Dimethylisoxazol-4-yl)-4-phenyl-4,5-dihydroimidazo[1,5,4-de][1,4]benzoxazin-2-yl]amino}propan-2-ol], for which the IC50 with KMS.12.BM cells (Homo sapiens, 72 h) was under 1000 nM; in the assay on C-myc in KMS.12.BM cells it was under 1000 nM.

In the case of `CC(=O)N1CC=C(c2nc3ccc(-c4c(C)noc4C)c4c3n2[C@@H](c2ccccn2)CO4)CC1` [Example 110, (4S)-2-(1-acetyl-1,2,3,6-tetrahydropyridin-4-yl)-7-(3,5-dimethylisoxazol-4-yl)-4-pyridin-2-yl-4,5-dihydroimidazo[1,5,4-de][1,4]benzoxazine], the IC50 in the assay with KMS.12.BM cells (Homo sapiens, 72 h) is under 1000 nM; in the assay with C-myc in KMS.12.BM cells it was under 1000 nM.

As to `Cc1noc(C)c1-c1ccc2[nH]c(=O)n3c2c1OCC3c1ccc(F)cc1F` (stereo not shown) [Example 8, 7-(3,5-Dimethylisoxazol-4-yl)-4-(2,4-difluorophenyl)-4,5-dihydroimidazo[1,5,4-de][1,4]benzoxazin-2(1H)-one], the IC50 was under 1000 nM in the assay on KMS.12.BM cells (Homo sapiens, 72 h) and under 1000 nM in the assay on C-myc in KMS.12.BM cells.

Turning to `Cc1noc(C)c1-c1ccc2nc(N(C)CCO)n3c2c1OCC3c1ccccc1` (stereo not shown) [Example 34, 2-[[7-(3,5-Dimethylisoxazol-4-yl)-4-phenyl-4,5-dihydroimidazo[1,5,4-de][1,4]benzoxazin-2-yl](methyl)amino]ethanol], the IC50 with KMS.12.BM cells (Homo sapiens, 72 h) was under 1000 nM; in the assay on C-myc in KMS.12.BM cells, under 1000 nM.

Regarding `Cc1noc(C)c1-c1ccc2[nH]c(=O)n3c2c1OCC3c1ccc(C#N)cc1` (stereo not shown) [Example 4, 4-[7-(3,5-Dimethylisoxazol-4-yl)-2-oxo-1,2,4,5-tetrahydroimidazo[1,5,4-de][1,4]benzoxazin-4-yl]benzonitrile], the IC50 with KMS.12.BM cells (Homo sapiens, 72 h) was under 1000 nM; with C-myc in KMS.12.BM cells, under 1000 nM.

As to `Cc1noc(C)c1-c1ccc2[nH]c(=O)n3c2c1OCC3c1ccccc1` (single isomer, unassigned) [Example 1B, 7-(3,5-Dimethylisoxazol-4-yl)-4-phenyl-4,5-dihydroimidazo[1,5,4-de][1,4]benzoxazin-2(1H)-one], the IC50 on BRD4-BD2 and on BRD4-BD1 was 100 to 1000 nM in each case.

Regarding `Cc1noc(C)c1-c1cc(CNC(=O)NC(C)C)c2[nH]c(=O)n3c2c1OC[C@@H]3c1ccccn1` [Example 142, N-{[(4S)-7-(3,5-Dimethylisoxazol-4-yl)-2-oxo-4-pyridin-2-yl-1,2,4,5-tetrahydroimidazo[1,5,4-de][1,4]benzoxazin-9-yl]methyl}-N′-isopropylurea], the concentration for half-maximal inhibition (IC50) in the assay on KMS.12.BM cells (Homo sapiens, KMS-12-BM, 72 h) was under 1000 nM; with C-myc in KMS.12.BM cells, under 1000 nM.
